In brackets after ≈: the same amount, converted by molar mass. Some results are limits rather than exact numbers.

This note sets out measurements from ChEMBL document CHEMBL3832761, “MMV Pathogen Box Bioactivity Data” (2017).

What all share (format): functional
In experiment [1] the test system is Mycobacterium tuberculosis. As to the kind of experiment: AntiMycobacterium tuberculosis activity 2-week GAST/Fe MIC (uM). Particulars: 336 h.
Experiment [2] has as its system Mycobacterium tuberculosis. As to the kind of experiment: AntiMycobacterium tuberculosis activity 1-week GAST/Fe MIC (uM). The note with it: 168 h.
The subject of experiment [3] is Mycobacterium tuberculosis. Briefly: AntiMycobacterium tuberculosis activity 1-week 7H9/cholesterol/BSA/Tx MIC (uM). The note with it: 168 h.
For experiment [4], the system named is Mycobacterium tuberculosis. As to the kind of experiment: AntiMycobacterium tuberculosis activity day 21 in 7H9/2.5mM butyrate/pH6/0.1mM nitrite MIC90 (uM). The note with it: 504 h.
For experiment [5], the system named is Mycobacterium tuberculosis. Briefly: (§1) AntiMycobacterium tuberculosis activity day 10 in 7H9/2.5mM butyrate/pH6/0.1mM nitrite MIC90 (uM). Particulars: 240 h.
Experiment [6] deals with Mycobacterium tuberculosis. As to the kind of experiment: AntiMycobacterium tuberculosis activity 2-week 7H9/DPPC/cholesterol/BSA/Tx MIC (uM). The note with it: 336 h.
Experiment [7] relates to HepG2. As to the kind of experiment: HepG2 glucose CC50 (uM) Cytotoxicity.
Experiment [8] relates to Mycobacterium tuberculosis. Briefly: AntiMycobacterium tuberculosis activity 2-week 7H9/glucose/BSA/Tx MIC (uM). The note with it: 336 h.
In experiment [9] the test system is Mycobacterium tuberculosis. As to the kind of experiment: AntiMycobacterium tuberculosis activity 1-week 7H9/ADC/Tw MIC (uM). The note with it: 168 h.
The test system of experiment [10] is HepG2. Briefly: HepG2 galactose CC50 (uM) Cytotoxicity.
For experiment [11], the system named is Mycobacterium tuberculosis. As to the kind of experiment: AntiMycobacterium tuberculosis activity 2-week Alamar Blue 7H9/cholesterol/BSA/Tx MIC (uM). Particulars: 336 h. On the technique in general: Resazurin is reduced to fluorescent resorufin, in cell work by metabolically active cells.
Experiment [12] has as its system Mycobacterium tuberculosis. Described as §1. Particulars: 240 h. This is another data set of the same source.
In experiment [13] the test system is Mycobacterium tuberculosis. As to the kind of experiment: AntiMycobacterium tuberculosis activity 1-week 7H9/DPPC/cholesterol/BSA/Tx MIC (uM). Particulars: 168 h.
For experiment [14], the system named is Mycobacterium tuberculosis. Briefly: AntiMycobacterium tuberculosis activity day 21 MIC99 in 7H9/2.5mM butyrate/pH6/0.1mM nitrite MIC99 (uM). The note with it: 504 h.
The test system of experiment [15] is Mycobacterium tuberculosis. As to the kind of experiment: AntiMycobacterium tuberculosis activity 2-week Alamar Blue 7H9/ADC/Tw MIC (uM). The note with it: 336 h.
Experiment [16] deals with Mycobacterium tuberculosis. As to the kind of experiment: AntiMycobacterium tuberculosis activity 2-week 7H9/ADC/Tw MIC (uM). The note with it: 336 h.
The test system of experiment [17] is Mycobacterium tuberculosis. Briefly: AntiMycobacterium tuberculosis activity 1-week 7H9/glucose/BSA/Tx MIC (uM). Particulars: 168 h.

As usually defined, the MIC is the smallest concentration in the dilution series that meets the test's criterion for growth inhibition. Read a low MIC as greater potency. A word on the MIC90: it is an inhibitory concentration at the 90% level, which refers to growth in some studies and to a panel of isolates in others. A lower MIC90 goes with greater potency. One may read the CC50 as the concentration at which the toxic effect on the cells reaches its halfway point. A high value points to lower toxicity to the cells. With `COc1cc(CN2CCC3(C=Cc4ccccc43)CC2)cc2c1OCO2`, the MIC in experiment [1] is 0.78 µM (≈ 0.273 µg/mL); in experiment [2], 0.6 µM (≈ 0.21 µg/mL); in [3], 1.56 µM (≈ 0.545 µg/mL); in experiment [6], 2.3 µM (≈ 0.804 µg/mL); in experiment [8] it was 2.3 µM (≈ 0.804 µg/mL); in experiment [9] it was 1.2 µM (≈ 0.419 µg/mL). In addition, the MIC in [11] amounted to 2.3 µM (≈ 0.804 µg/mL); in experiment [13], 1.56 µM (≈ 0.545 µg/mL); in experiment [14] it was 12.5 µM (≈ 4.37 µg/mL); in experiment [15] it was 0.78 µM (≈ 0.273 µg/mL); in [16] it was 0.78 µM (≈ 0.273 µg/mL); in experiment [17], 2.3 µM (≈ 0.804 µg/mL). In addition, the MIC90 in experiment [4] was determined as 6.25 µM (≈ 2.18 µg/mL); in [5], 6.25 µM (≈ 2.18 µg/mL); in [12], 12.5 µM (≈ 4.37 µg/mL). Further, the CC50 in the experiment on HepG2 [7] (Homo sapiens, HepG2) is greater than 50 µM; in the experiment on HepG2 [10] (Homo sapiens, HepG2), greater than 50 µM.

In the case of `c1ccc(-c2nc(NC3CCCCC3)cc(C3CC3)n2)nc1`, the MIC in experiment [1] amounted to 25 µM (≈ 7.36 µg/mL); in experiment [2], 25 µM (≈ 7.36 µg/mL); in experiment [3], 19 µM (≈ 5.59 µg/mL); in [6], 50 µM (≈ 14.7 µg/mL); in [8], 50 µM (≈ 14.7 µg/mL); in experiment [9] it was 37 µM (≈ 10.9 µg/mL). Besides, the MIC was 9.4 µM (≈ 2.77 µg/mL) in experiment [11]; 25 µM (≈ 7.36 µg/mL) in experiment [13]; greater than 50 µM in experiment [14]; 37 µM (≈ 10.9 µg/mL) in [15]; 50 µM (≈ 14.7 µg/mL) in [16]; 37 µM (≈ 10.9 µg/mL) in experiment [17]. The MIC90 in experiment [4] is 50 µM (≈ 14.7 µg/mL); in [5] it was 25 µM (≈ 7.36 µg/mL); in experiment [12], 50 µM (≈ 14.7 µg/mL). In addition, the CC50 in the experiment on HepG2 [7] (Homo sapiens, HepG2) is greater than 50 µM; in the experiment with HepG2 [10] (Homo sapiens, HepG2) it was greater than 50 µM.

For the compound `Brc1cncc(-c2cc(NCCCn3ccnc3)nc(-c3ccccc3)n2)c1`, the MIC in experiment [1] came to 12.5 µM (≈ 5.44 µg/mL); in [2], 12.5 µM (≈ 5.44 µg/mL); in experiment [3] it was 9.4 µM (≈ 4.09 µg/mL); in [6], 9.4 µM (≈ 4.09 µg/mL); in experiment [8] it was 12.5 µM (≈ 5.44 µg/mL); in experiment [9], 37 µM (≈ 16.1 µg/mL). Also, the minimal inhibitory concentration (MIC) in experiment [11] is 6.25 µM (≈ 2.72 µg/mL); in experiment [13], 6.25 µM (≈ 2.72 µg/mL); in experiment [14], greater than 50 µM; in experiment [15] it was 12.5 µM (≈ 5.44 µg/mL); in experiment [16], 25 µM (≈ 10.9 µg/mL); in experiment [17], 4.7 µM (≈ 2.05 µg/mL). Besides, the figures for the MIC90 in experiment [4], in [5] and in experiment [12] were 12.5 µM (≈ 5.44 µg/mL), 12.5 µM (≈ 5.44 µg/mL) and greater than 50 µM, respectively. The CC50 was 28.3 µM with HepG2 [7]; 16.4 µM in the experiment on HepG2 [7] (Homo sapiens, HepG2); greater than 50 µM with HepG2 [10]; 43.6 µM in the experiment with HepG2 [10] (Homo sapiens, HepG2).

As to `Cc1ccccc1CN1CCC(O)(c2ccc(Cl)c(C(F)(F)F)c2)CC1`, the MIC in [1] was determined as 0.3 µM (≈ 0.115 µg/mL); in experiment [2] it was 0.3 µM (≈ 0.115 µg/mL); in experiment [3], 0.6 µM (≈ 0.23 µg/mL); in experiment [6] it was 0.78 µM (≈ 0.299 µg/mL); in experiment [8] it was 1.2 µM (≈ 0.461 µg/mL); in [9], 0.39 µM (≈ 0.15 µg/mL). The MIC in [11] is 0.78 µM (≈ 0.299 µg/mL); in experiment [13], 0.6 µM (≈ 0.23 µg/mL); in experiment [14], 25 µM (≈ 9.6 µg/mL); in [15], 0.39 µM (≈ 0.15 µg/mL); in experiment [16] it was 0.39 µM (≈ 0.15 µg/mL); in [17], 0.39 µM (≈ 0.15 µg/mL). The MIC90 in [4] was 3.12 µM (≈ 1.2 µg/mL); in experiment [5], 3.12 µM (≈ 1.2 µg/mL); in [12] it was 12.5 µM (≈ 4.8 µg/mL). In addition, the CC50 in the experiment on HepG2 [7] (Homo sapiens, HepG2) is greater than 50 µM; in the experiment on HepG2 [10] (Homo sapiens, HepG2) it was greater than 50 µM.

Take `COc1cccc(NC(=O)c2c(NC(=O)c3cccnc3)sc3c2CCC3)c1`: the MIC in [1] amounted to 12.5 µM (≈ 4.92 µg/mL); in experiment [2], 9.4 µM (≈ 3.7 µg/mL); in experiment [3], 12.5 µM (≈ 4.92 µg/mL); in [6], 50 µM (≈ 19.7 µg/mL); in experiment [8] it was 6.25 µM (≈ 2.46 µg/mL); in experiment [9], 12.5 µM (≈ 4.92 µg/mL). Besides, the MIC in experiment [11] is greater than 50 µM; in experiment [13], 9.4 µM (≈ 3.7 µg/mL); in [14], greater than 50 µM; in experiment [15], 12.5 µM (≈ 4.92 µg/mL); in experiment [16] it was 12.5 µM (≈ 4.92 µg/mL); in experiment [17], 4.7 µM (≈ 1.85 µg/mL). Also, the MIC90 in [4] is greater than 50 µM; in experiment [5], 3.12 µM (≈ 1.23 µg/mL); in experiment [12], greater than 50 µM. The CC50 in the experiment with HepG2 [7] (Homo sapiens, HepG2) is greater than 50 µM; in the experiment on HepG2 [10] (Homo sapiens, HepG2), greater than 50 µM.

Take `COc1cc(Br)cc2cc(C(=O)Nc3cccc(C(F)(F)F)c3)c(=O)oc12`: the MIC in experiment [1] turned out to be 4.7 µM (≈ 2.08 µg/mL); in experiment [2], 1.2 µM (≈ 0.531 µg/mL); in [3] it was 6.25 µM (≈ 2.76 µg/mL); in experiment [6], 9.4 µM (≈ 4.16 µg/mL); in experiment [8], 9.4 µM (≈ 4.16 µg/mL); in experiment [9] it was 50 µM (≈ 22.1 µg/mL). Also, the MIC in [11] is 12.5 µM (≈ 5.53 µg/mL); in experiment [13], 2.3 µM (≈ 1.02 µg/mL); in experiment [14], 12.5 µM (≈ 5.53 µg/mL); in experiment [15], greater than 50 µM; in experiment [16], greater than 50 µM; in [17], 1.56 µM (≈ 0.69 µg/mL). Also, the MIC90 turned out to be 12.5 µM (≈ 5.53 µg/mL) in [4], 1.5 µM (≈ 0.663 µg/mL) in experiment [5] and 12.5 µM (≈ 5.53 µg/mL) in [12]. Moreover, the CC50 is greater than 50 µM in the experiment on HepG2 [7] (Homo sapiens, HepG2) and greater than 50 µM with HepG2 [10] (Homo sapiens, HepG2).
